Drawing on ChEMBL document CHEMBL2150984, “Synthesis of fluorescent ristocetin aglycon derivatives with remarkable antibacterial and antiviral activities” (Eur J Med Chem, 2012), this text covers MIC, MCC and EC50 for one compound.

Molecules are shown by their SMILES. pEC50: −log10 of the molar value. In brackets after ≈: the same amount, converted by molar mass.

Data set [1] has as its system Staphylococcus epidermidis. The experiment in a line: Antibacterial activity against Staphylococcus epidermidis expressing mecA gene by broth microdilution method. It is filed as functional. (In general: In broth dilution the organism is exposed to a series of concentrations in liquid medium.)
In another data set the test system is Bacillus subtilis. The data set can be described thus: Antibacterial activity against Bacillus subtilis ATCC 6633 by broth microdilution method. Type of data set: functional.
Data set [2] in a line: Cytotoxicity against MDCK cells assessed as minimum concentration required to cause microscopically detectable alteration measured on day 3 post infection by MTS assay. The following applies: dog. Type of data set: cell-based, Canis lupus familiaris.
Data set [3] deals with Staphylococcus aureus. The experiment in a line: Antibacterial activity against methicillin-sensitive Staphylococcus aureus ATCC 29213 by broth microdilution method. It is filed as functional.
Another data set relates to H3N2 subtype. The experiment in a line: Antiviral activity against Influenza A/HK/7/87 infected in MDCK cells assessed as inhibition of virus-induced cytopathic effect measured on day 3 post infection by MTS assay. Type of data set: functional, organism-based. Particulars: A/Hong Kong/7/1987(H3N2), 72 h.
Data set [4] deals with Enterococcus faecalis. The experiment in a line: Antibacterial activity against Enterococcus faecalis ATCC 51299 expressing vanB gene by broth microdilution method. It is filed as functional.
A further data set relates to Influenza B virus. The experiment in a line: Antiviral activity against Influenza B/HK/5/72 infected in MDCK cells assessed as inhibition of virus-induced cytopathic effect measured on day 3 post infection by MTS assay. It is filed as functional, cell-based. Particulars: B/Hong Kong/05/1972, MDCK, 72 h. For orientation: Cytopathic effects are the visible damage that an infection or toxin causes in cultured cells.

The test system of a further data set is Influenza A virus. The data set can be described thus: Antiviral activity against Influenza A/PR/8/34 infected in MDCK cells assessed as inhibition of virus-induced cytopathic effect measured on day 3 post infection by MTS assay. Type of data set: functional, organism-based. The following applies: A/Puerto Rico/8/1934(H1N1), 72 h.
Data set [5] relates to Enterococcus faecalis. The experiment in a line: Antibacterial activity against Enterococcus faecalis ATCC 15376 expressing vanA gene by broth microdilution method. It is filed as functional.
Data set [6] relates to Enterococcus faecalis. The experiment in a line: Antibacterial activity against Enterococcus faecalis ATCC 29212 by broth microdilution method. It is filed as functional.
Data set [7] deals with Staphylococcus aureus. The experiment in a line: Antibacterial activity against methicillin-resistant Staphylococcus aureus ATCC 33591 by broth microdilution method. It is filed as functional.
Data set [8] relates to Staphylococcus epidermidis. The experiment in a line: Antibacterial activity against biofilm forming Staphylococcus epidermidis ATCC 35984 by broth microdilution method. Type of data set: functional.

Broadly, the pEC50 is −log10 of the EC50, conventionally taken in molar units. On to `COC(=O)[C@H]1NC(=O)[C@H]2NC(=O)[C@H](NC(=O)[C@@H]3NC(=O)[C@H]4NC(=O)[C@H](NC(=O)[C@H](n5cc6ccccc6c5Sc5nc6ccccc6s5)c5ccc(O)c(c5)Oc5cc4cc(O)c5C)[C@H](O)c4ccc(cc4)Oc4cc3cc(c4O)Oc3ccc(cc3)[C@H]2O)c2ccc(O)c(c2)-c2c(O)cc(O)cc21`, for which the MIC was found to be 1 µg/mL (≈ 0.695 µM) in data set [1]; 2 µg/mL (≈ 1.39 µM) in the data set with Bacillus subtilis; 1 µg/mL (≈ 0.695 µM) with Staphylococcus aureus [3]; 2 µg/mL (≈ 1.39 µM) with Enterococcus faecalis [4]; 1 µg/mL (≈ 0.695 µM) with Enterococcus faecalis [5]; 0.5 µg/mL (≈ 0.347 µM) in the data set on Enterococcus faecalis [6]. Further, the MIC in the data set with Staphylococcus aureus [7] was 0.5 µg/mL (≈ 0.347 µM); in data set [8], 2 µg/mL (≈ 1.39 µM). Further, in [2], the MCC at 3 days is 20 µM. Further, the figures for the pEC50 in the data set with H3N2 subtype, in the data set on Influenza B virus and in the data set with Influenza A virus were 5.40, 5.05 and 5.85, respectively.
